Counter-ions that a name gives are not always drawn.
Molecular target: human DP2 (Homo sapiens (Human), UniProt Q9Y5Y4)
Test: DP-2 Binding Inhibition Assay (3H-PGD2 binding to membranes of K562 cells expressing DP2)
Settings: read-out: EC50 (Nm) 1% HSA; inhibition of 3H-PGD2 binding, 1% HSA
Experimental: DP-2 Binding Inhibition Assay
The coding sequence of human DP2 was introduced into the human Leukemic cell line K562 by electroporation and stable clones expressing DP2 were obtained by limiting dilution followed by cell surface staining with a rat monoclonal antibody specific for human DP2. Membranes were prepared from one of these DP2 expressing clones and used to determine the ability of compounds of the present invention to inhibit binding of prostaglandin D2 (PGD2) to its receptor DP2 in the presence of one or more of the following serum protein concentrations, 0.1% BSA, 1% HSA or 4% HSA, by the following procedure. Membranes (1.25 μg/well for 0.1% BSA and 6 μg/well for 1% or 4% HSA) were mixed with ^3H-labeled PGD2 and various concentrations of test compounds in 150 μL of binding buffer (50 mM Tris-HCl, pH 7.4, 40 mM MgCl2, 0.1% bovine serum albumin, 0.1% NaN3) in 96-well U-bottom polypropylene plates. After incubation for 60 minutes at room temperature, the assay was transferred to a filtration plate (#MAFB; Millipore Corporation, Bedford, Mass.), and washed three times with binding buffer. Radioactivity was measured by a scintillation counter (TopCount; PerkinElmer Life Sciences, Boston, Mass.). Nonspecific binding was determined by incubations in the presence of 1 μM unlabeled PGD2 or 5 μM of a known DP2 antagonist. EC50 values for inhibition of binding were determined for each compound tested from the inflexion point of a standard 4-parameter logistical curve fitted to the values obtained.

Sequence of human DP2 (Q9Y5Y4 whole entry): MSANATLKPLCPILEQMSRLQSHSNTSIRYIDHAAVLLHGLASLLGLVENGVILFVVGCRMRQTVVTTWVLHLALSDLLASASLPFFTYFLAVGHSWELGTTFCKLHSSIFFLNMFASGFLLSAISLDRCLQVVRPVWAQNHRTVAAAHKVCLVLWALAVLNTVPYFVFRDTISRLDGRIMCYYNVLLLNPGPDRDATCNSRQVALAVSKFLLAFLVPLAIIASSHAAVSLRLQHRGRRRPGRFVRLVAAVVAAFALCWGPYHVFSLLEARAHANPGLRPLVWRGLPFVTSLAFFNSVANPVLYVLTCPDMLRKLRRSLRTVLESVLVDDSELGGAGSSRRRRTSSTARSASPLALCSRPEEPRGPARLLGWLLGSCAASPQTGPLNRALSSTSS

Row | SMILES | EC50 [nM]
1 | COc1cc(C2CC2)ccc1CCNC(=O)c1ccc(Oc2cc3c(cc2Cl)C(C(=O)O)CCO3)cc1 (stereo not shown) [Example 36, Sodium 6-chloro-7-(4-(4-cyclopropyl-2-methoxyphenethylcarbamoyl)phenoxy)chroman-4-carboxylate] | 17.3
2 | N#Cc1cc2c(cc1Oc1ccc(C(=O)Nc3ccc4c(c3)CNCC4)cc1)OCCC2C(=O)O (stereo not shown) [Example 45, 6-Cyano-7-(4-(1,2,3,4-tetrahydroisoquinolin-7-ylcarbamoyl)phenoxy)chroman-4-carboxylic acid hydrochloride] | 1370
3 | O=C(NCCc1ccc(Cl)cc1)c1ccc(Oc2c(Cl)cc3c(c2Cl)OCCC3C(=O)O)cc1 (stereo not shown) [Example 46, Sodium 6,8-dichloro-7-(4-(4-chlorophenethylcarbamoyl)phenoxy)chroman-4-carboxylate] | 15.8

Now from value to compound:

Row | EC50 [nM] | SMILES
4 | 12.1 | N#Cc1cc2c(cc1Oc1ccc(C(=O)NC3CC3c3ccccc3)cc1)OCCC2C(=O)O (stereo not shown) [Example 47, 7-(4-((2-Phenylcyclopropyl)carbamoyl)phenoxy)-6-cyano-3,4-dihydro-2H-chromene-4-carboxylic acid]
5 | 30.7 | COc1cccc(CCNC(=O)c2ccc(Oc3cc4c(cc3C#N)C(C(=O)O)CCO4)cc2)c1 (stereo not shown) [Example 48, 7-(4-((3-Methoxyphenethyl)carbamoyl)phenoxy)-6-cyano-3,4-dihydro-2H-chromene-4-carboxylic acid]

Same assay, conditions: read-out: EC50 (nM) 4% HSA; inhibition of 3H-PGD2 binding, 4% HSA

Row | SMILES | EC50 [nM]
6 | O=C(NCCc1ccc(Cl)cc1-c1ccccc1Cl)c1ccc(Oc2cc3c(cc2Cl)C(C(=O)O)CCO3)cc1 (stereo not shown) [Example 33, Sodium 6-chloro-7-(4-(2-(2′,5-dichlorobiphenyl-2-yl)ethylcarbamoyl)phenoxy)chroman-4-carboxylate] | 126
7 | COc1cc(Br)ccc1CCNC(=O)c1ccc(Oc2cc3c(cc2Cl)C(C(=O)O)CCO3)cc1 (stereo not shown) [Example 35, Sodium 7-(4-(4-bromo-2-methoxyphenethylcarbamoyl)phenoxy)-6-chlorochroman-4-carboxylate] | 64.3
8 | COc1cc(C2CC2)ccc1CCNC(=O)c1ccc(Oc2cc3c(cc2Cl)C(C(=O)O)CCO3)cc1 (stereo not shown) [Example 36, Sodium 6-chloro-7-(4-(4-cyclopropyl-2-methoxyphenethylcarbamoyl)phenoxy)chroman-4-carboxylate] | 93
9 | O=C(NCCc1ccc(Cl)cc1)c1ccc(Oc2c(Cl)cc3c(c2Br)OCCC3C(=O)O)cc1 (stereo not shown) [Example 38, Sodium 8-bromo-6-chloro-7-(4-(4-chlorophenethylcarbamoyl)phenoxy)chroman-4-carboxylate] | 366
10 | O=C(NCCc1ccc(Cl)cc1Cl)c1ccc(Oc2c(C3CC3)cc3c(c2C2CC2)OCCC3C(=O)O)cc1 (stereo not shown) [Example 40, Sodium 6,8-dicyclopropyl-7-(4-(2,4-dichlorophenethylcarbamoyl)phenoxy)chroman-4-carboxylate] | 42.2
11 | O=C(NCCc1ccc(Cl)cc1)c1ccc(Oc2cc3c(cc2C2CC2)C(C(=O)O)CCO3)cc1 (stereo not shown) [Example 41, Sodium 7-(4-(4-chlorophenethylcarbamoyl)phenoxy)-6-cyclopropylchroman-4-carboxylate] | 150
12 | O=C(NCCc1ccc(Cl)cc1Cl)c1ccc(Oc2cc3c(cc2C2CC2)C(C(=O)O)CCO3)cc1 (stereo not shown) [Example 42, Sodium 6-cyclopropyl-7-(4-(2,4-dichlorophenethylcarbamoyl)phenoxy)chroman-4-carboxylate] | 73.8
13 | O=C(NCCc1ccc(Cl)cc1)c1ccc(Oc2c(Cl)cc3c(c2Cl)OCCC3C(=O)O)cc1 (stereo not shown) [Example 46, Sodium 6,8-dichloro-7-(4-(4-chlorophenethylcarbamoyl)phenoxy)chroman-4-carboxylate] | 176

Second part, the compound after the results:

Row | EC50 [nM] | SMILES
14 | 68.2 | O=C(NCCc1ccc(Cl)cc1)c1ccc(Oc2c(C3CC3)cc3c(c2C2CC2)OCCC3C(=O)O)cc1 (stereo not shown) [Example 39, Sodium 7-(4-(4-chlorophenethylcarbamoyl)phenoxy)-6,8-dicyclopropylchroman-4-carboxylate]
15 | 51.5 | O=C(NCCc1ccc(Cl)cc1Cl)c1ccc(Oc2c(Cl)cc3c(c2C2CC2)OCCC3C(=O)O)cc1 (stereo not shown) [Example 43, Sodium 6-chloro-8-cyclopropyl-7-(4-(2,4-dichlorophenethylcarbamoyl)phenoxy)chroman-4-carboxylate]
16 | 3480 | CN(C)Cc1ccc(CCNC(=O)c2ccc(Oc3cc4c(cc3C#N)C(C(=O)O)CCO4)cc2)cc1 (stereo not shown) [Example 44, 6-Cyano-7-(4-(4-((dimethylamino)methyl)phenethylcarbamoyl)phenoxy)chroman-4-carboxylic acid]
